From patent US11051516B2, “Antimicrobial sanitizer compositions and their use” (GFS CORPORATION AUS PTY LTD, priority 2014, dated 2021) come the findings set out here.

This assay deals with Escherichia coli K12 NCTC 10538. Nature of the assay: Hygienic Handrub test BS EN 1500:2013 on human volunteers' hands. In kind it is in vivo. On the procedure: The composition of Example 2 was tested for compliance with requirements for chemical disinfectants and antiseptics in accordance with European Standard BS EN 1500:2013 Chemical Disinfectants and Antiseptics—Hygienic Handrub—Test Method and Requirements. The test organism was Escherichia coli K12 NCTC 10538 which was obtained as a freeze dried ampoule and was reconstituted using Tryptone Soy Broth and incubated to achieve a concentration of 2×10^9 Cfu/mL. The reference standard was propan-2-ol 60% v/v solution in sterile water. There were no deviations from the standard test method.
Human volunteer's hands were washed for 1 minute with diluted soft soap (5 mL), rinsed in running water and dried with a paper towel for at least 30 seconds. The hands were immersed up to the mid-metacarpals for five seconds and the liquid was allowed to drain back into the container for a maximum of 30 seconds before allowing to air dry for three minutes.
The reference standard (3.0 mL) was applied and rubbed for 30 seconds. This was repeated with a second portion of reference standard (3.0 mL) and rubbing for a further 30 seconds. This procedure was repeated for 20 volunteers.
This protocol was repeated on 20 volunteers using the composition of Example 2.
The protocol of Example 16 was repeated for the composition of Example 4.

As to `CC(C)O` [reference standard, propan-2-ol], the “Mean Log Reduction Factor” value was found to be 3.89 (Example 16, 20 volunteers, 2 x 3.0 mL, rubbed 30 seconds each) and 3.90 (Example 17, protocol of Example 16 repeated).
